Measured values reported in PubChem BioAssay AID248 (DTP/NCI, 2004).
“And” between values parts separate entries of the source, which are not always exact repeats. Identical values can stand only once. Toxic doses and inconclusive results are not listed. Rule as the data show it: active = T/C of 150% or more; inactive = T/C below 125%.

System: L1210 leukemia ip in BDF1 mice, survival T/C
Assay: NCI In Vivo Anticancer Drug Screen. Data for tumor model L1210 Leukemia (intraperitoneal) in B6D2F1 (BDF1) mice
Conditions: endpoint: mean survival time, higher = longer survival
Method in brief: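 In this screen, tumor-bearing mice given compound are compared to those given vehicle, and their survival values are reported as a treated-to-control quotient.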

[1] = dose: 100.0 mg/kg/injection, schedule: Q01DX001 (ip), vehicle: Klucel (hydroxypropylcellulose) (HPC)
[2] = dose: 200.0 mg/kg/injection, schedule: Q01DX001 (ip), vehicle: Klucel (hydroxypropylcellulose) (HPC)
[3] = dose: 400.0 mg/kg/injection, schedule: Q01DX001 (ip), vehicle: Klucel (hydroxypropylcellulose) (HPC)
[4] = dose: 100.0 mg/kg/injection, schedule: Q01DX001 (ip), vehicle: saline
[5] = dose: 200.0 mg/kg/injection, schedule: Q01DX001 (ip), vehicle: saline
[6] = dose: 400.0 mg/kg/injection, schedule: Q01DX001 (ip), vehicle: saline
[7] = dose: 100.0 mg/kg/injection, schedule: Q04DX002 (ip), vehicle: Klucel (hydroxypropylcellulose) (HPC)
[8] = dose: 200.0 mg/kg/injection, schedule: Q04DX002 (ip), vehicle: Klucel (hydroxypropylcellulose) (HPC)
[9] = dose: 400.0 mg/kg/injection, schedule: Q04DX002 (ip), vehicle: Klucel (hydroxypropylcellulose) (HPC)

Measured: T/C

O=S(=O)(F)c1ccccc1C[P+](c1ccccc1)(c1ccccc1)c1ccccc1
inactive: dose: 1.56 mg/kg/injection, schedule: Q01DX009 (ip), vehicle: Klucel (hydroxypropylcellulose) (HPC) 110 % of control | dose: 3.12 mg/kg/injection, schedule: Q01DX009 (ip), vehicle: Klucel (hydroxypropylcellulose) (HPC) 118 % of control | dose: 6.25 mg/kg/injection, schedule: Q01DX009 (ip), vehicle: Klucel (hydroxypropylcellulose) (HPC) 117 % of control

NC(=O)C1NC(=O)NC1=O (centres undefined)
inactive: dose: 100.0 mg/kg/injection, schedule: Q01DX009 (ip), vehicle: saline with Tween-80 88 % of control | dose: 200.0 mg/kg/injection, schedule: Q01DX009 (ip), vehicle: saline with Tween-80 93 % of control | dose: 400.0 mg/kg/injection, schedule: Q01DX009 (ip), vehicle: saline with Tween-80 97 % of control

COc1cccc(C2CCCCCC2OS(=O)(=O)c2ccc(C)cc2)c1OC (centres undefined)
inactive: dose: 100.0 mg/kg/injection, schedule: Q04DX003 (ip), vehicle: acetone 110 % of control | dose: 200.0 mg/kg/injection, schedule: Q04DX003 (ip), vehicle: acetone 98 % of control | dose: 400.0 mg/kg/injection, schedule: Q04DX003 (ip), vehicle: acetone 103 % of control

O=C(O)C1(Br)CC12c1ccccc1-c1ccccc12 (centres undefined)
inactive: dose: 100.0 mg/kg/injection, schedule: Q01DX001 (ip), vehicle: acetone 92 % of control | dose: 200.0 mg/kg/injection, schedule: Q01DX001 (ip), vehicle: acetone 95 % of control

COC1(OC)CCC2(C)C(CCCC2OS(=O)(=O)c2ccc(C)cc2)C1 (centres undefined)
inactive: dose: 100.0 mg/kg/injection, schedule: Q01DX001 (ip), vehicle: carboxymethylcellulose (CMC) 97 % of control | dose: 200.0 mg/kg/injection, schedule: Q01DX001 (ip), vehicle: carboxymethylcellulose (CMC) 108 % of control | dose: 400.0 mg/kg/injection, schedule: Q01DX001 (ip), vehicle: carboxymethylcellulose (CMC) 97 % of control

CCCCCCCCCCCCOC(C(=O)O)(c1ccccc1)c1ccccc1
inactive: dose: 25.0 mg/kg/injection, schedule: Q04DX003 (ip), vehicle: saline with Tween-80 100 % of control | dose: 50.0 mg/kg/injection, schedule: Q04DX003 (ip), vehicle: saline with Tween-80 91 % of control | dose: 100.0 mg/kg/injection, schedule: Q04DX003 (ip), vehicle: saline with Tween-80 98 % of control and 89 % of control

COc1ccc(CCN2COc3ccc4ccc(=O)oc4c3C2)cc1OC
inactive: dose: 100.0 mg/kg/injection, schedule: Q04DX003 (ip), vehicle: saline sonified 111 % of control | dose: 200.0 mg/kg/injection, schedule: Q04DX003 (ip), vehicle: saline sonified 111 % of control | dose: 400.0 mg/kg/injection, schedule: Q04DX003 (ip), vehicle: saline sonified 106 % of control

O=C(O)C1CC(c2ccccc2)=NN1c1ccccc1 (centres undefined)
inactive: [1] 104 % of control | [2] 90 % of control | [3] 93 % of control

Cn1c(=O)c2c(ncn2CCO)n(C)c1=O
inactive: [4] 100 % of control | dose: 100.0 mg/kg/injection, schedule: Q01DX009 (ip), vehicle: saline 99 % of control | dose: 100.0 mg/kg/injection, schedule: Q04DX003 (ip), vehicle: saline 104 % of control | [5] 104 % of control | dose: 200.0 mg/kg/injection, schedule: Q01DX009 (ip), vehicle: saline 100 % of control | dose: 200.0 mg/kg/injection, schedule: Q04DX003 (ip), vehicle: saline 101 % of control | [6] 102 % of control | dose: 400.0 mg/kg/injection, schedule: Q01DX009 (ip), vehicle: saline 105 % of control | dose: 400.0 mg/kg/injection, schedule: Q04DX003 (ip), vehicle: saline 100 % of control

CC1NCCCNCCCNC(C)c2cccc1n2 (centres undefined)
inactive: dose: 12.5 mg/kg/injection, schedule: Q04DX002 (ip), vehicle: saline 92 % of control | dose: 25.0 mg/kg/injection, schedule: Q04DX002 (ip), vehicle: saline 89 % of control

NNC(=O)C(=O)NN
inactive: [7] 102 % of control | [8] 98 % of control | [9] 93 % of control

COc1ccccc1C(=O)N/N=C/c1cccc([N+](=O)[O-])c1
inactive: [7] 96 % of control | [8] 89 % of control | [9] 89 % of control

CCCC(=O)c1cc(C)sc1C
inactive: dose: 100.0 mg/kg/injection, schedule: Q01DX009 (sc), vehicle: olive oil, sesame oil, peanut oil 90 % of control | dose: 100.0 mg/kg/injection, schedule: Q04DX003 (sc), vehicle: olive oil, sesame oil, peanut oil 100 % of control | dose: 200.0 mg/kg/injection, schedule: Q01DX009 (sc), vehicle: olive oil, sesame oil, peanut oil 87 % of control | dose: 200.0 mg/kg/injection, schedule: Q04DX003 (sc), vehicle: olive oil, sesame oil, peanut oil 93 % of control | dose: 400.0 mg/kg/injection, schedule: Q01DX009 (sc), vehicle: olive oil, sesame oil, peanut oil 99 % of control | dose: 400.0 mg/kg/injection, schedule: Q04DX003 (sc), vehicle: olive oil, sesame oil, peanut oil 100 % of control

O=c1c(Br)c(-c2ccccc2)nc2ccccn12
inactive: dose: 25.0 mg/kg/injection, schedule: Q01DX001 (ip), vehicle: saline with Tween-80 91 % of control | dose: 50.0 mg/kg/injection, schedule: Q01DX001 (ip), vehicle: saline with Tween-80 91 % of control | dose: 100.0 mg/kg/injection, schedule: Q01DX001 (ip), vehicle: saline with Tween-80 95 % of control

CC(=O)OCC(OC(C)=O)C1OCOC2COCOC21 (centres undefined)
inactive: [1] 108 % of control | [2] 89 % of control | [3] 101 % of control

CCOP(=O)(Cc1c(Cl)c(Cl)c(CP(=O)(OCC)OCC)c(Cl)c1Cl)OCC
inactive: [4] 107 % of control | [5] 98 % of control | [6] 98 % of control

CC(=O)N1C(C)C1(c1ccccc1)[n+]1ccccc1 (centres undefined)
inactive: dose: 12.0 mg/kg/injection, schedule: Q04DX003 (ip), vehicle: saline 98 % of control | dose: 12.5 mg/kg/injection, schedule: Q01DX009 (ip), vehicle: saline 101 % of control | dose: 25.0 mg/kg/injection, schedule: Q01DX009 (ip), vehicle: saline 92 % of control | dose: 25.0 mg/kg/injection, schedule: Q04DX003 (ip), vehicle: saline 88 % of control | dose: 50.0 mg/kg/injection, schedule: Q01DX009 (ip), vehicle: saline 101 % of control | dose: 50.0 mg/kg/injection, schedule: Q04DX003 (ip), vehicle: saline 104 % of control

O=C1Nc2ccc(Br)cc2C1=Nc1ccc(Cl)cc1
inactive: [7] 95 % of control | [8] 92 % of control | [9] 89 % of control

CCCc1cc(C(C)=O)c[n+](C2OC(COC(C)=O)C(OC(C)=O)C(OC(C)=O)C2OC(C)=O)c1 (centres undefined)
inactive: dose: 50.0 mg/kg/injection, schedule: Q01DX005 (ip), vehicle: water 97 % of control | dose: 100.0 mg/kg/injection, schedule: Q01DX005 (ip), vehicle: water 97 % of control

Cc1ccc([N+](=O)[O-])cc1NC(=O)Nc1cccc(Cl)c1Cl
inactive: [7] 86 % of control | [8] 96 % of control | [9] 90 % of control

S=C(Nc1ccccc1)Nc1ccccc1S
inactive: dose: 100.0 mg/kg/injection, schedule: Q01DX009 (ip), vehicle: Klucel (hydroxypropylcellulose) (HPC) 97 % of control | dose: 100.0 mg/kg/injection, schedule: Q04DX003 (ip), vehicle: Klucel (hydroxypropylcellulose) (HPC) 98 % of control | dose: 200.0 mg/kg/injection, schedule: Q01DX009 (ip), vehicle: Klucel (hydroxypropylcellulose) (HPC) 92 % of control | dose: 200.0 mg/kg/injection, schedule: Q04DX003 (ip), vehicle: Klucel (hydroxypropylcellulose) (HPC) 95 % of control | dose: 400.0 mg/kg/injection, schedule: Q01DX009 (ip), vehicle: Klucel (hydroxypropylcellulose) (HPC) 92 % of control | dose: 400.0 mg/kg/injection, schedule: Q04DX003 (ip), vehicle: Klucel (hydroxypropylcellulose) (HPC) 95 % of control

COc1ccc2c(=O)c(C)c(-c3ccccc3)oc2c1CN(C)C
inactive: dose: 0.19 mg/kg/injection, schedule: Q01DX009 (ip), vehicle: saline 96 % of control | dose: 0.39 mg/kg/injection, schedule: Q01DX009 (ip), vehicle: saline 112 % of control | dose: 0.78 mg/kg/injection, schedule: Q01DX009 (ip), vehicle: saline 110 % of control | dose: 0.78 mg/kg/injection, schedule: Q04DX003 (ip), vehicle: saline 100 % of control | dose: 1.56 mg/kg/injection, schedule: Q01DX009 (ip), vehicle: saline 112 % of control | dose: 1.56 mg/kg/injection, schedule: Q04DX003 (ip), vehicle: saline 94 % of control | dose: 3.12 mg/kg/injection, schedule: Q01DX009 (ip), vehicle: saline 108 % of control | dose: 3.12 mg/kg/injection, schedule: Q04DX003 (ip), vehicle: saline 93 % of control | dose: 5.0 mg/kg/injection, schedule: Q01DX001 (ip), vehicle: saline 103 % of control
